According to patent US20150174021A1, “COSMETIC COMPOSITION COMPRISING BENZYLSULFONYL-D-SER-HOMOPHE-(4-AMIDINO-BENZYLAMIDE) AND A POLYALCOHOL” (DSM IP ASSETS B.V., priority 2012, published 2015):
Where two headings read alike, the source gives them in different places.

How the values were obtained:
human plasmin = human plasmin (Homo sapiens, UniProt P00747); test: Inhibition of human plasmin, chromogenic substrate Tos-Gly-Pro-Lys-pNA, Ki according to Dixon; format: biochemical
Method: The measurements were carried out on a microplate reader at 25′C.
(§1) The measurements were carried out on a microplate reader at 25° C. […] The Ki-values for the respective inhibitors were calculated according to Dixon34 using a linear regression proaram. Bz-βAla-Gly-Arg-pNA was used as the substrate for human uPA and Tos-Gly-Pro-Lys-pNA for human plasmin.

human uPA = human uPA (Homo sapiens, UniProt P00749); test: Inhibition of human uPA (urokinase), chromogenic substrate Bz-βAla-Gly-Arg-pNA, Ki according to Dixon; format: biochemical
Method: The measurements were carried out on a microplate reader at 25° C.
as §1

[1] = comparative inhibitor compositions, 0.1% inhibitor and 99.9% of glycerine 86%, 25° C., pH 8.0, Dixon, read-out: Ki for plasmin inhibition

Sequence of human plasmin (P00747 581-810 limits assumed): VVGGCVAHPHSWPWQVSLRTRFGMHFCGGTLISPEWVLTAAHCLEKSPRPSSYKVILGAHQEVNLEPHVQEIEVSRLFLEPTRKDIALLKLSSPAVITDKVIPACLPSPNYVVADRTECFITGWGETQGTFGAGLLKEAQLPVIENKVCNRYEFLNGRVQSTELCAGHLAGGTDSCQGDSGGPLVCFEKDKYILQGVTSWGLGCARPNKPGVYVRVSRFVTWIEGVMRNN
Sequence of human plasmin (P00747 97-580 partner limits assumed): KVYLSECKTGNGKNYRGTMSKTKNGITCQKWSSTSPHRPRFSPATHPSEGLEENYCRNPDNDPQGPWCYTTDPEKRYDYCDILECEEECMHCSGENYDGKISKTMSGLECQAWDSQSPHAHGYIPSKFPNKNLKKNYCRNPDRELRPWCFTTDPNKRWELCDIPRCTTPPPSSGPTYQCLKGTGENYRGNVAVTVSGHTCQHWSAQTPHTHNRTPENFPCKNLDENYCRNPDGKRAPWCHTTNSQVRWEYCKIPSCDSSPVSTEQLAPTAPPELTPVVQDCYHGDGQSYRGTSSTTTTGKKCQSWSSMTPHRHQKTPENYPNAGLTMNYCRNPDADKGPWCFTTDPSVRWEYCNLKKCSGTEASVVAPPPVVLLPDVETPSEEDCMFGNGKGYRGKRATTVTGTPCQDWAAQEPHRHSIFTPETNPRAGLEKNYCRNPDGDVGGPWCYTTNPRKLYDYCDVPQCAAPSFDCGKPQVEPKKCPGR

Ki (human plasmin; [1]) [nM] | Ki (human uPA; comparative inhibitor compositions, 0.1% inhibitor and 99.9% of glycerine 86%, 25° C., pH 8.0, Dixon, read-out: Ki for uPA inhibition) [nM] | SMILES | Ki (human uPA) [nM] | Ki (human plasmin) [nM] | Ki for plasmin inhibition compared to 3 other 4-amidino benzylamines (human plasmin; compared to the Gly, Ala and Lys analogues of WO2009/026949)
540 |  | CC(NC(=O)C(CO)NS(=O)(=O)Cc1ccccc1)C(=O)NCc1ccc(C(=N)N)cc1 [Benzylsulfonyl-D-Ser-Ala-(4-amidino-benzylamide)] |  |  | 
11000 |  | N=C(N)c1ccc(CNC(=O)CNC(=O)[C@@H](CO)NS(=O)(=O)Cc2ccccc2)cc1 [Benzylsulfonyl-D-Ser-Gly-(4-amidino-benzylamide)] |  |  | 
360 | 24 | N=C(N)c1ccc(CNC(=O)C(CCCCN)NC(=O)C(CO)NS(=O)(=O)Cc2ccccc2)cc1 [Benzylsulfonyl-D-Ser-Lys-(4-amidino-benzylamide), reference compound] |  |  | 
 |  | N=C(N)c1ccc(CNC(=O)C(CCc2ccccc2)NC(=O)C(CO)NS(=O)(=O)Cc2ccccc2)cc1 [benzylsulfonyl-D-Ser-homoPhe-(4-amidino-benzylamide)] | 28 | 36 | an order of magnitude better
